Reference: US5998436A, “Pyridonecarboxylic acid derivatives or their salts and antibacterial agent comprising the same as the active ingredient” (Wakunaga Pharmaceuticals Co., Ltd., priority 1995, dated 1999)
Converted amounts (≈) assume the structure as drawn. Structures can show the parent of a compound that is named as a salt. Where two headings read alike, the source gives them in different places.

Experiments:
Female ICR mice (ears) = conditions: mouse, in vivo, iv, 40 mg/kg
Procedure: The compounds of the Examples 9, 10, 12 and 39 as described above were subjected to phototoxicity test by the procedure as described below.
Female ICR mice (5 to 6 week old) were intravenously administered with the test compound (40 mg/kg/10 ml), and irradiated with UV (320 to 400 nm, 1.8 mW/cm^2 /sec) for 4 hours. Abnormality in the ears was monitored at 0 hour (immediately after the irradiation) and after 24 and 48 hours. The ear abnormality was evaluated by the following is criteria: no abnormality (0 point), very slight erythema (1 point), well defined erythema (2 points), moderate to severe erythema and edema formation (3 points). Tosufloxacin which is a conventional known antibacterial agent was also tested in a similar way for the purpose of comparison.

S. epidermidis IFO12293 = assay: minimum growth inhibitory concentration (MIC), standard method of Japan Chemotherapy Society; format: cell-based; conditions: Staphylococcus epidermidis
Procedure: (§1) It should be noted that ciprofloxacin, levofloxacin,sparfloxacin and tosufloxacin which are conventional antibacterials were also evaluated for their minimum growth inhibitory concentration (MIC, μg/ml) for the purpose of comparison.

S. aureus 209P = assay: as above; format: cell-based; conditions: Staphylococcus aureus, read-out: minimum growth inhibitory concentration (MIC)
Procedure: as §1

P. aeruginosa IFO 3445 = assay: as above; format: cell-based; conditions: Pseudomonas aeruginosa
Procedure: as §1

[1] = S. epidermidis IFO12293, read-out: minimum growth inhibitory concentration (MIC)
[2] = IFO3445, P. aeruginosa IFO 3445, read-out: minimum growth inhibitory concentration (MIC)

Row | Structure (SMILES) | ear abnormality score (0 no abnormality, 1 very slight erythema, 2 well defined erythema, 3 moderate to severe erythema and edema) (Female ICR mice (ears)) [point] | ear abnormality, occurrence (Female ICR mice (ears)) | MIC (S. epidermidis IFO12293; [1]) [µg/mL] | MIC (S. aureus 209P; S. aureus 209P) [µg/mL] | MIC (P. aeruginosa IFO 3445; [2]) [µg/mL] | MIC (S. epidermidis IFO12293; IFO12293, read-out: minimum growth inhibitory concentration (MIC)) [µg/mL] | MIC (S. aureus 209P; 209P) [µg/mL] | MIC (P. aeruginosa IFO 3445; IFO3445, read-out: minimum growth inhibitory concentration (MIC)) [µg/mL]
1 | C[C@H]1COc2c(N3CCN(C)CC3)c(F)cc3c(=O)c(C(=O)O)cn1c23 [Levofloxacin, levofloxacin, reference compound] |  |  | 0.39 (≈ 1.08 µM) | 0.1 (≈ 0.277 µM) | 0.39 (≈ 1.08 µM) |  |  | 
2 | NC1CCN(c2nc3c(cc2F)c(=O)c(C(=O)O)cn3-c2ccc(F)cc2F)C1 (centres unmarked) [Tosufloxacin, tosufloxacin, reference compound] |  |  | 0.2 (≈ 0.495 µM) | 0.05 (≈ 0.124 µM) | 0.39 (≈ 0.965 µM) |  |  | 
3 | C[C@@H]1CN(c2c(F)c(N)c3c(=O)c(C(=O)O)cn(C4CC4)c3c2F)C[C@H](C)N1 [Sparfloxacin, sparfloxacin, reference compound] |  |  | 0.2 (≈ 0.51 µM) | 0.1 (≈ 0.255 µM) | 0.78 (≈ 1.99 µM) |  |  | 
4 | O=C(O)c1cn(C2CC2)c2cc(N3CCNCC3)c(F)cc2c1=O [Ciprofloxacin, ciprofloxacin, reference compound] |  |  |  |  |  | 0.39 (≈ 1.18 µM) | 0.1 (≈ 0.302 µM) | 0.2 (≈ 0.604 µM)

Second part, led by results:

Row | ear abnormality score (0 no abnormality, 1 very slight erythema, 2 well defined erythema, 3 moderate to severe erythema and edema) (Female ICR mice (ears)) [point] | ear abnormality, occurrence (Female ICR mice (ears)) | MIC (S. epidermidis IFO12293; [1]) [µg/mL] | MIC (S. aureus 209P; S. aureus 209P) [µg/mL] | MIC (P. aeruginosa IFO 3445; [2]) [µg/mL] | Structure (SMILES) | MIC (S. epidermidis IFO12293; IFO12293, read-out: minimum growth inhibitory concentration (MIC)) [µg/mL] | MIC (S. aureus 209P; 209P) [µg/mL] | MIC (P. aeruginosa IFO 3445; IFO3445, read-out: minimum growth inhibitory concentration (MIC)) [µg/mL]
5 | 0 | 0/3 | 0.025 (≈ 0.0568 µM) | < 0.013 | 0.05 (≈ 0.114 µM) | Nc1nc(-n2cc(C(=O)O)c(=O)c3cc(F)c(N4CC(N)C4)c(Cl)c32)c(F)cc1F [Ex. 9, 7-(3-aminoazetidin-1-yl)-1-(6-amino-3,5-difluoropyridin-2-yl)-8-chloro-6-fluoro-4-oxo-1,4-dihydroquinoline-3-carboxylic acid] |  |  | 
6 | 0 | 0/3 | 0.025 (≈ 0.0551 µM) | < 0.013 | 0.1 (≈ 0.22 µM) | CNC1CN(c2c(F)cc3c(=O)c(C(=O)O)cn(-c4nc(N)c(F)cc4F)c3c2Cl)C1 [Ex. 10, 1-(6-amino-3,5-difluoropyridin-2-yl)-8-chloro-6-fluoro-7-(3-methylaminoazetidin-1-yl)-4-oxo-1,4-dihydroquinoline-3-carboxylic acid] |  |  | 
7 | 0 | 0/3 | < 0.013 | < 0.013 | 0.39 | Nc1nc(-n2cc(C(=O)O)c(=O)c3cc(F)c(N4CC(O)C4)c(Cl)c32)c(F)cc1F [Ex. 12, 3-hydroxyazetidine salt of 1-(6-amino-3,5-difluoropyridin-2-yl)-8-chloro-6-fluoro-7-(3-hydroxyazetidin-1-yl)-4-oxo-1,4-dihydroquinoline-3-carboxylic acid] |  |  | 
8 | 0 | 0/3 | 0.025 (≈ 0.0516 µM) | < 0.013 | 0.05 (≈ 0.103 µM) | Nc1nc(-n2cc(C(=O)O)c(=O)c3cc(F)c(N4CC(N)C4)c(Br)c32)c(F)cc1F [Ex. 39, 7-(3-aminoazetidin-1-yl)-1-(6-amino-3,5-difluoropyridin-2-yl)-8-bromo-6-fluoro-4-oxo-1,4-dihydroquinoline-3-carboxylic acid] |  |  | 
